For eleven molecules, GI50 and TGI results are on record in PubChem BioAssay (NCI).

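Cells were grown in 96-well plates and exposed to each compound for 48 hours at five concentrations; endpoints were interpolated linearly between bracketing concentrations, or set to the highest concentration if not reached. GI50 marks 50% less growth. TGI: total growth inhibition.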

Some test systems named below: HOP-92 NSCLC; SK-MEL-2 melanoma; MALME-3M melanoma; NCI-H226 lung; OVCAR-3 ovarian; SK-MEL-5 melanoma; SF-539 CNS; K-562 leukemia; NCI-H460 lung; EKVX NSCLC.
Experiment in all cases: growth of human tumour cells (NCI), 48 h

For `O=Nc1c(-c2c(O)[nH]c3ccc([N+](=O)[O-])cc23)[nH]c2ccc(O)cc12`, the GI50 with HOP-92 NSCLC is 2.78 µM; in the experiment on SK-MEL-2 melanoma, 0.293 µM; in the experiment with MALME-3M melanoma, 0.781 µM; in the experiment with NCI-H226 lung, 0.383 µM; with OVCAR-3 ovarian, 0.367 µM; in the experiment with SK-MEL-5 melanoma, 0.189 µM. Besides, the GI50 was 0.258 µM in the experiment on SF-539 CNS, 0.456 µM in the experiment on K-562 leukemia and 0.32 µM in the experiment with NCI-H460 lung. Moreover, the TGI with HOP-92 NSCLC was greater than 29.1 µM; with SK-MEL-2 melanoma, 0.757 µM; in the experiment on MALME-3M melanoma, 45.3 µM; with NCI-H226 lung, greater than 100 µM; in the experiment with OVCAR-3 ovarian, 3.04 µM; in the experiment with SK-MEL-5 melanoma it was 0.414 µM. Also, the TGI was 0.827 µM with SF-539 CNS and greater than 37.7 µM in the experiment on K-562 leukemia.

As for `O=C1C(c2c[nH]c3ccccc23)=C(c2c[nH]c3ccccc23)C(=O)N1O`, the GI50 with HOP-92 NSCLC is 2.89 µM; in the experiment with SK-MEL-2 melanoma it was greater than 25 µM; with MALME-3M melanoma, greater than 25 µM; in the experiment with NCI-H226 lung, greater than 25 µM; in the experiment on OVCAR-3 ovarian, greater than 25 µM; in the experiment on SK-MEL-5 melanoma, greater than 25 µM. In addition, the GI50 with SF-539 CNS, in the experiment with K-562 leukemia and in the experiment on NCI-H460 lung was greater than 25 µM in each case. Also, the TGI with HOP-92 NSCLC is 21.7 µM; with SK-MEL-2 melanoma it was greater than 25 µM; in the experiment on MALME-3M melanoma it was greater than 25 µM; in the experiment with NCI-H226 lung it was greater than 25 µM; in the experiment with OVCAR-3 ovarian, greater than 25 µM; with SK-MEL-5 melanoma it was greater than 25 µM. Further, the TGI in the experiment with SF-539 CNS, with K-562 leukemia and in the experiment with NCI-H460 lung was greater than 25 µM throughout.

As to `CC(C)=CCC/C(C)=C/CC/C(C)=C/Cc1c(O)c2ccccc2oc1=O`, the TGI with HOP-92 NSCLC, in the experiment on SK-MEL-2 melanoma, in the experiment with EKVX NSCLC, in the experiment on MALME-3M melanoma, in the experiment on NCI-H226 lung and with OVCAR-3 ovarian was greater than 100 µM throughout. Further, the TGI with SF-539 CNS, in the experiment with K-562 leukemia and in the experiment on NCI-H460 lung was greater than 100 µM in each case.

For `O=C([CH-]C(=O)c1ccccc1)c1ccccc1.O=C([CH-]C(=O)c1ccccc1)c1ccccc1.O=C([CH-]C(=O)c1ccccc1)c1ccccc1.[Nd+3].[OH3+]`, the GI50 is 8.29 µM in the experiment on HOP-92 NSCLC; 3.97 µM with SK-MEL-2 melanoma; 2.8 µM in the experiment with EKVX NSCLC; 9.41 µM with MALME-3M melanoma; 3.01 µM in the experiment with OVCAR-3 ovarian; 2.79 µM in the experiment with SK-MEL-5 melanoma. Moreover, the results for the GI50 in the experiment on SF-539 CNS, with K-562 leukemia and in the experiment with NCI-H460 lung were 13.7 µM, 2.8 µM and 3.41 µM, respectively. The TGI in the experiment on HOP-92 NSCLC came out at 25.5 µM; with SK-MEL-2 melanoma it was 15.6 µM; in the experiment with EKVX NSCLC, 13.9 µM; in the experiment with MALME-3M melanoma, 36.4 µM; in the experiment with OVCAR-3 ovarian it was 14.8 µM; in the experiment on SK-MEL-5 melanoma, 11.8 µM. The TGI in the experiment with SF-539 CNS was 45.9 µM; in the experiment with K-562 leukemia it was 16.7 µM; with NCI-H460 lung, greater than 100 µM.

Regarding `C1C[OH+]CC[OH+]CCNCC[OH+]CC[OH+]CCN1.[Cl-].[Pt+4]`, the GI50 with HOP-92 NSCLC, in the experiment on EKVX NSCLC, with MALME-3M melanoma, in the experiment on NCI-H226 lung, in the experiment with OVCAR-3 ovarian and in the experiment on SK-MEL-5 melanoma was greater than 100 µM throughout. Also, the GI50 in the experiment on SF-539 CNS and with K-562 leukemia was greater than 100 µM each time. Also, the TGI in the experiment on HOP-92 NSCLC, in the experiment on EKVX NSCLC, in the experiment on MALME-3M melanoma, in the experiment on NCI-H226 lung, with OVCAR-3 ovarian and in the experiment with SK-MEL-5 melanoma was greater than 100 µM throughout. Further, the TGI in the experiment with SF-539 CNS and in the experiment on K-562 leukemia was greater than 100 µM in each case.

For `O=C(/C=C/c1ccccc1)CC1OC(=O)c2ccccc21` (stereo not given), the TGI with HOP-92 NSCLC was greater than 100 µM; in the experiment with SK-MEL-2 melanoma, greater than 100 µM; in the experiment on EKVX NSCLC, greater than 100 µM; with MALME-3M melanoma, greater than 100 µM; in the experiment on NCI-H226 lung, 83.1 µM; with SK-MEL-5 melanoma, greater than 100 µM. Further, the TGI in the experiment with SF-539 CNS, in the experiment with K-562 leukemia and with NCI-H460 lung was greater than 100 µM throughout.

On to `CC(=O)N[C@@H]1C(O)CN2C(=O)C(=O)O[C@H](C(O)CO)[C@@H]12` (stereo not given in full), for which the TGI with HOP-92 NSCLC, with SK-MEL-2 melanoma, in the experiment with EKVX NSCLC, in the experiment on MALME-3M melanoma, in the experiment on OVCAR-3 ovarian and in the experiment with SF-539 CNS was greater than 100 µM in each case. Besides, the TGI in the experiment on K-562 leukemia and with NCI-H460 lung was greater than 100 µM in each case.

Take `CCc1cccc(C(C)C)c1NC(=O)C(=O)CC(=O)c1c(C)n([O-])c2ccccc2[n+]1=O`: the TGI in the experiment on HOP-92 NSCLC, in the experiment with SK-MEL-2 melanoma, in the experiment with EKVX NSCLC, in the experiment on MALME-3M melanoma, with NCI-H226 lung and with SK-MEL-5 melanoma was greater than 100 µM throughout. For the same molecule, the TGI with SF-539 CNS, in the experiment on K-562 leukemia and with NCI-H460 lung was greater than 100 µM throughout.

For `COc1ccc2c(c1)/C(=C\c1cccnc1)C(=O)N2`, the GI50 in the experiment on HOP-92 NSCLC was 26.6 µM; in the experiment with SK-MEL-2 melanoma it was 42.3 µM; in the experiment with EKVX NSCLC, 3.79 µM; with MALME-3M melanoma it was 21 µM; with NCI-H226 lung it was 7.38 µM; in the experiment with OVCAR-3 ovarian it was 40.5 µM. Further, the figures for the GI50 with SK-MEL-5 melanoma, with K-562 leukemia and in the experiment on NCI-H460 lung were 16.5 µM, 13.8 µM and 19.2 µM, respectively. Further, the TGI in the experiment on HOP-92 NSCLC is 69.7 µM; in the experiment with SK-MEL-2 melanoma, greater than 100 µM; in the experiment with EKVX NSCLC, 25.2 µM; in the experiment with MALME-3M melanoma it was 47.9 µM; in the experiment on NCI-H226 lung, 23.6 µM; in the experiment with OVCAR-3 ovarian, greater than 100 µM. In addition, the results for the TGI in the experiment on SK-MEL-5 melanoma, in the experiment on K-562 leukemia and in the experiment with NCI-H460 lung were 45.7 µM, greater than 100 µM and 62.4 µM, respectively.

As to `Oc1cc(O)c(Oc2cccc(O)c2O)c(O)c1`, the TGI in the experiment with HOP-92 NSCLC is greater than 100 µM; in the experiment on SK-MEL-2 melanoma, greater than 100 µM; with EKVX NSCLC, greater than 100 µM; in the experiment on MALME-3M melanoma it was greater than 100 µM; in the experiment on OVCAR-3 ovarian, greater than 100 µM; with SK-MEL-5 melanoma, 38.7 µM. The TGI with SF-539 CNS, in the experiment with K-562 leukemia and with NCI-H460 lung was greater than 100 µM in each case.

Regarding `O=C(c1ccc(Cl)cc1)c1ccc(OCCCCCCCCCCOc2ccc(C(=O)c3ccc(Cl)cc3)cc2)cc1`, the TGI in the experiment with HOP-92 NSCLC, with SK-MEL-2 melanoma, in the experiment with EKVX NSCLC, in the experiment on MALME-3M melanoma, in the experiment on NCI-H226 lung and in the experiment on OVCAR-3 ovarian was greater than 100 µM throughout. Also, the TGI in the experiment on SK-MEL-5 melanoma, in the experiment on K-562 leukemia and with NCI-H460 lung was greater than 100 µM in each case.
